Source: patent US12668587B2, “Benzimidazolone GLP-1 receptor agonist and use thereof” (HANGZHOU ZHONGMEIHUADONG PHARMACEUTICAL CO., LTD., priority 2020, dated 2026)
Read-outs that look alike come from different tables or passages of the source.

Target: Human GLP-1R (Homo sapiens, UniProt P43220)
Test: GLP-1R agonist activity, HTRF cAMP detection in 293A GFP-GLP-1R cells
Set-up: Emax: dose or concentration left out as unconfirmed
Conditions: for Emax: 293A
[1] = cAMP level, 293A GFP-GLP-1R cells, 30 min incubation, geometric mean

Human GLP-1R, sequence (P43220 24-463): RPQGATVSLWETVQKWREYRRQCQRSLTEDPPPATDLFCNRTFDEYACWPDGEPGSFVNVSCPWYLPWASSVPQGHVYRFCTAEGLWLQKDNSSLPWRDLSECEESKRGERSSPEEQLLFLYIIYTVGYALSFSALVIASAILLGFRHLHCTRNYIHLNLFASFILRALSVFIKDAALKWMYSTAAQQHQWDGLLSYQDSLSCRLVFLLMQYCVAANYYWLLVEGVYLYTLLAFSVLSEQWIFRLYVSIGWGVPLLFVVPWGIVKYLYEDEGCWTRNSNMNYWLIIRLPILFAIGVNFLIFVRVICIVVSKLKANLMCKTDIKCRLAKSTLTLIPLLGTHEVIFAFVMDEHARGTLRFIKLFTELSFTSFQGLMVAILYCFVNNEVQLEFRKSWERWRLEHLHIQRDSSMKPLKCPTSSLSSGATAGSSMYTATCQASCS
Protocol: GLP-1R-mediated agonist activity was determined by cell-based assays using a homogeneous time-resolved fluorescence (i.e., HTRF)-based cAMP detection kit, which measures the level of cAMP in cells. The method was a competitive immunoassay. It enabled direct pharmacological characterization of compounds acting on Gs-coupled receptors in adherent or suspending cells.
The standard curve of native cAMP or unlabeled cAMP produced by cells competed with d2-labeled cAMP red receptors to bind monoclonal anti-cAMP Eu3+ cryptate donors, and the specific signal was inversely proportional to the concentration of cAMP in standard or tested samples.
Human GLP-1R encoding sequence (NCBI reference sequence NP_002053.3) was subcloned into pEGFP-N1 (tsingke), and the cell line stably expressing the receptor was isolated. The expression density of GLP-1R was confirmed by the expression of GFP observed under a fluorescence microscope.
Cells were collected from a T25 tissue culture flask and centrifuged at room temperature at 1000 rpm for 5 minutes. The cell precipitates were then re-suspended in 1 mL of the stimulating buffer. 20 μL sample of cell suspension was counted on a counter STAR IC 1000 to determine the cell viability and the cell count per mL. The remaining cell suspension was then regulated with the stimulating buffer to deliver 2000 living cells per well using a multi-channel pipette. 5 μL of the cell suspension was added to each well of the plate which already contained the compound. The plate was sealed and incubated at 37° C. with 5% CO2 for 30 minutes.
After 30 minutes of incubation, 5 μL of d2-labeled cAMP and 5 μL of anti-cAMP cryptate (both 1: 20 diluted in the cell lysis buffer) were added to each well of the plate. The plate was then incubated at room temperature for 60 minutes, and the changes of HTRF signal were read with Tecan Spark reader: absorbance values at 340 nm (excitation)/at 615 nm and 665 nm (emission). Raw data were converted into nM cAMP by interpolation from the cAMP standard curve, and the effect in percentage was determined relative to the saturated concentration of the complete agonist GLP-17˜37 (400 nM) contained in each plate. Determination of EC50 was performed based on the agonist dose-response curve, which was analyzed using a four-parameter logical dose-response equation with a curve fitting program.
The test data presented the results in the form of a geometric mean (EC50s) based on the number of repetition times.

Compound | EC50 | Emax | EC50 [1]
CC(=O)c1ccc(COc2cccc(C3CCN(Cc4nc5ccc(C(=O)O)cc5n4C[C@@H]4CCO4)CC3)n2)c(F)c1 [Compound 1, (S)-2-((4-(6-((4-acetyl-2-fluorobenzyl)oxy)pyridin-2-yl)piperidin-1-yl)methyl)-1-(oxetan-2-ylmethyl)-1H-benzo[d]imidazole-6-carboxylic acid] | 0.85 nM | 111% | –
CS(=O)(=O)c1ccc(COc2cccc(C3CCN(Cc4nc5ccc(C(=O)O)cc5n4C[C@@H]4CCO4)CC3)n2)c(F)c1 [Compound 2, (S)-2-((4-(6-((2-fluoro-4-(methylsulfonyl)benzyl)oxy)pyridin-2-yl)piperidin-1-yl)methyl)-1-(oxetan-2-methyl)-1H-benzo[d]imidazole-6-carboxylic acid] | > 1000 nM | 29.8% | –
NC(=O)c1ccc(COc2cccc(C3CCN(Cc4nc5ccc(C(=O)O)cc5n4C[C@@H]4CCO4)CC3)n2)c(F)c1 [Compound 3, (S)-2-((4-(6-((4-carbamoyl-2-fluorobenzyl)oxy)pyridin-2-yl)piperidin-1-yl)methyl)-1-(oxetan-2-ylmethyl)-1H-benzo[d]imidazole-6-carboxylic acid] | – | 54.5% | 75.9 nM
CNC(=O)c1ccc(COc2cccc(C3CCN(Cc4nc5ccc(C(=O)O)cc5n4C[C@@H]4CCO4)CC3)n2)c(F)c1 [Compound 4, (S)-2-((4-(6-((2-fluoro-4-(methylcarbamoyl)benzyl)oxy)pyridin-2-yl)piperidin-1-yl)methyl)-1-(oxetan-2-ylmethyl)-1H-benzo[d]imidazole-6-carboxylic acid] | – | 68.6% | 179 nM
CC(=O)c1ccc(COc2cccc(C3CCN(Cc4nc5ccc(C(=O)O)nc5n4C[C@@H]4CCO4)CC3)n2)c(F)c1 [Compound 5, (S)-2-((4-(6-((4-acetyl-2-fluorobenzyl)oxy)pyridin-2-yl)piperidin-1-yl)methyl)-3-(oxetan-2-ylmethyl)-3H-imidazo[4,5-b]pyridine-5-carboxylic acid] | 0.54 nM | 81.3% | –
CP(C)(=O)c1ccc(COc2cccc(C3CCN(Cc4nc5ccc(C(=O)O)cc5n4C[C@@H]4CCO4)CC3)n2)c(F)c1 [Compound 6, (S)-2-((4-(6-((4-(dimethylphosphoryl)-2-fluorobenzyl)oxy)pyridin-2-yl)piperidin-1-yl)methyl)-1-(oxetan-2-ylmethyl)-1H-benzo[d]imidazole-6-carboxylic acid] | > 1000 nM | 7.07% | –
O=C(O)c1ccc2nc(CN3CCC(c4cccc(OCc5ccc(C(=O)C6CC6)cc5F)n4)CC3)n(C[C@@H]3CCO3)c2c1 [Compound 7, (S)-2-((4-(6-((4-(cyclopropanecarbonyl)-2-fluorobenzyl)oxy)pyridin-2-yl)piperidin-1-yl)methyl)-1-(oxetan-2-ylmethyl)-1H-benzo[d]imidazole-6-carboxylic acid] | – | 103% | 0.75 nM
O=C(O)c1ccc2nc(CN3CCC(c4cccc(OCc5ccc(C(=O)c6cccnc6)cc5F)n4)CC3)n(C[C@@H]3CCO3)c2c1 [Compound 8, (S)-2-((4-(6-((2-fluoro-4-nicotinoylbenzyl)oxy)pyridin-2-yl)piperidin-1-yl)methyl)-1-(oxetan-2-ylmethyl)-1H-benzo[d]imidazole-6-carboxylic acid] | – | 88% | 23.7 nM
CC(=O)c1ccc(COc2cccc(C3CCN(Cc4nc5ccc(C(=O)O)cc5n4C[C@@H]4CCO4)CC3)n2)nc1 [Compound 9, (S)-2-((4-(6-((5-acetylpyridin-2-yl)methoxy)pyridin-2-yl)piperidin-1-yl)methyl)-1-(oxetan-2-ylmethyl)-1H-benzo[d]imidazole-6-carboxylic acid] | 27 nM | 83.4% | –
CC(=O)c1ccc(COc2cccc(C3CCN(Cc4nc5ccc(C(=O)O)cc5n4C[C@@H]4CCO4)CC3)n2)c(C)c1 [Compound 10, (S)-2-((4-(6-((4-acetyl-2-methylbenzyl)oxy)pyridin-2-yl)piperidin-1-yl)methyl)-1-(oxetan-2-ylmethyl)-1H-benzo[d]imidazole-6-carboxylic acid] | 1.67 nM | 125% | –
CC(=O)c1ccc(COc2cccc(C3CCN(Cc4nc5ccc(C(=O)O)cc5n4C[C@@H]4CCO4)CC3)n2)c(C(F)(F)F)c1 [Compound 11, (S)-2-((4-(6-((4-acetyl-2-(trifluoromethyl)benzyl)oxy)pyridin-2-yl)piperidin-1-yl)methyl)-1-(oxetan-2-ylmethyl)-1H-benzo[d]imidazole-6-carboxylic acid] | 42.5 nM | 85.5% | –
COc1cc(C(C)=O)ccc1COc1cccc(C2CCN(Cc3nc4ccc(C(=O)O)cc4n3C[C@@H]3CCO3)CC2)n1 [Compound 12, (S)-2-((4-(6-((4-acetyl-2-methoxybenzyl)oxy)pyridin-2-yl)piperidin-1-yl)methyl)-1-(oxetan-2-ylmethyl)-1H-benzo[d]imidazole-6-carboxylic acid] | 0.25 nM | 147% | –
CC(=O)c1cc(F)c(COc2cccc(C3CCN(Cc4nc5ccc(C(=O)O)cc5n4C[C@@H]4CCO4)CC3)n2)c(F)c1 [Compound 13, (S)-2-((4-(6-((4-acetyl-2,6-difluorobenzyl)oxy)pyridin-2-yl)piperidin-1-yl)methyl)-1-(oxetan-2-ylmethyl)-1H-benzo[d]imidazole-6-carboxylic acid] | 40 nM | 88.5% | –
CC(=O)c1ccc(F)c(COc2cccc(C3CCN(Cc4nc5ccc(C(=O)O)cc5n4C[C@@H]4CCO4)CC3)n2)c1 [Compound 14, (S)-2-((4-(6-((5-acetyl-2-fluorobenzyl)oxy)pyridin-2-yl)piperidin-1-yl)methyl)-1-(oxetan-2-ylmethyl)-1H-benzo[d]imidazole-6-carboxylic acid] | 705 nM | 109% | –
CON(C)C(=O)c1ccc(COc2cccc(C3CCN(Cc4nc5ccc(C(=O)O)cc5n4C[C@@H]4CCO4)CC3)n2)c(F)c1 [Compound 15, (S)-2-((4-(6-((2-fluoro-4-(methoxy(methyl)carbamoyl)benzyl)oxy)pyridin-2-yl)piperidin-1-yl)methyl)-1-(oxetan-2-ylmethyl)-1H-benzo[d]imidazole-6-carboxylic acid] | > 1000 nM | 13.6% | –
CC(=O)c1ccc(COc2cccc(C3CCN(Cc4nc5ccc(C(=O)O)cc5n4C[C@@H]4CCO4)CC3)n2)cc1 [Compound 16, (S)-2-((4-(6-((4-acetylbenzyl)oxy)pyridin-2-yl)piperidin-1-yl)methyl)-1-(oxetan-2-ylmethyl)-1H-benzo[d]imidazole-6-carboxylic acid] | 7.19 nM | 88.2% | –
CC(=O)c1cccc(COc2cccc(C3CCN(Cc4nc5ccc(C(=O)O)cc5n4C[C@@H]4CCO4)CC3)n2)c1F [Compound 17, (S)-2-((4-(6-((3-acetyl-2-fluorobenzyl)oxy)-pyridin-2-yl)piperidin-1-yl)methyl)-1-(oxetan-2-ylmethyl)-1H-benzo[d]imidazole-6-carboxylic acid] | 7.68 nM | 104% | –
CC(=O)c1cccc(COc2cccc(C3CCN(Cc4nc5ccc(C(=O)O)cc5n4C[C@@H]4CCO4)CC3)n2)c1 [Compound 18, (S)-2-((4-(6-((3-acetylbenzyl)oxy)pyridin-2-yl)piperidin-1-yl)methyl)-1-(oxetan-2-ylmethyl)-1H-benzo[d]imidazole-6-carboxylic acid] | 22.1 nM | 113% | –
O=C(O)c1ccc2nc(CN3CCC(c4cccc(OCc5ccc(C(=O)C6CCOCC6)cc5F)n4)CC3)n(C[C@@H]3CCO3)c2c1 [Compound 19, (S)-2-((4-(6-((2-fluoro-4-(tetrahydro-2H-pyran-4-carbonyl)benzyl)oxy)pyridin-2-yl)piperidin-1-yl)methyl)-1-(oxetan-2-ylmethyl)-1H-benzo[d]imidazole-6-carboxylic acid] | – | 129% | 145 nM
COc1cc(C(=O)C2CC2)ccc1COc1cccc(C2CCN(Cc3nc4ccc(C(=O)O)cc4n3C[C@@H]3CCO3)CC2)n1 [Compound 20, (S)-2-((4-(6-((4-(cyclopropanecarbonyl)-2-methoxybenzyl)oxy)pyridin-2-yl)piperidin-1-yl)methyl)-1-(oxetan-2-ylmethyl)-1H-benzo[d]imidazole-6-carboxylic acid] | 0.31 nM | 120% | –
CC(=O)c1ccc(COc2cccc(C3CCN(Cc4nc5ccc(C(=O)O)cc5n4C[C@@H]4CCO4)CC3)n2)c(OC(F)(F)F)c1 [Compound 21, (S)-2-((4-(6-((4-acetyl-2-(trifluoromethoxy)benzyl)oxy)pyridin-2-yl)piperidin-1-yl)methyl)-1-(oxetan-2-ylmethyl)-1H-benzo[d]imidazole-6-carboxylic acid] | 95.3 nM | 91.8% | –
COc1cc(COc2cccc(C3=CCN(Cc4nc5ccc(C(=O)O)cc5n4C[C@@H]4CCO4)CC3)n2)ccc1C(C)=O [Compound 23, (S)-2-((6-((4-acetyl-3-methoxybenzyl)oxy)-3′,6′-dihydro-[2,4′-bipyridin]-1′(2′H)-yl)methyl)-1-(oxetan-2-ylmethyl)-1H-benzo[d]imidazole-6-carboxylic acid] | 16.1 nM | 108% | –
CN(C)C(=O)c1ccc(COc2cccc(C3CCN(Cc4nc5ccc(C(=O)O)cc5n4C[C@@H]4CCO4)CC3)n2)c(F)c1 [Compound 24, (S)-2-((4-(6-((4-(dimethylcarbamoyl)-2-fluorobenzyl)oxy)pyridin-2-yl)piperidin-1-yl)methyl)-1-(oxetan-2-ylmethyl)-1H-benzo[d]imidazole-6-carboxylic acid] | > 1000 nM | 25.8% | –
CC(=O)c1ccc(COc2cccc(C3CCN(Cc4nc5ccc(C(=O)O)cc5n4C[C@@H]4CCO4)CC3)n2)cc1F [Compound 26, (S)-2-((4-(6-((4-acetyl-3-fluorobenzyl)oxy)pyridin-2-yl)piperidin-1-yl)methyl)-1-(oxetan-2-ylmethyl)-1H-benzo[d]imidazole-6-carboxylic acid] | 4.57 nM | 94.4% | –
CC(=O)c1ccc(COc2cccc(C3CCN(Cc4nc5ccc(C(=O)O)cc5n4C[C@@H]4CCO4)CC3)n2)c(Cl)c1 [Compound 27] | 0.13 nM | 83.9% | –
